Results on 89 compounds are retold here after ChEMBL document CHEMBL3882725, “Indazole derivatives as JNK inhibitors and compositions and methods related thereto” (2002).

This test has as its target Mitogen-activated protein kinase 9 (Homo sapiens, UniProt P45984). The test can be described thus: Inhibition of His6-tagged JNK2 (unknown origin) assessed as reduction in c-Jun phosphorylation using GST-c-Jun (1 to 79 residues) and [gamma32P]ATP incubated for 1 hr by scintillation counting assay.

Sequence of Mitogen-activated protein kinase 9 (P45984 whole entry, the tested form may be a part): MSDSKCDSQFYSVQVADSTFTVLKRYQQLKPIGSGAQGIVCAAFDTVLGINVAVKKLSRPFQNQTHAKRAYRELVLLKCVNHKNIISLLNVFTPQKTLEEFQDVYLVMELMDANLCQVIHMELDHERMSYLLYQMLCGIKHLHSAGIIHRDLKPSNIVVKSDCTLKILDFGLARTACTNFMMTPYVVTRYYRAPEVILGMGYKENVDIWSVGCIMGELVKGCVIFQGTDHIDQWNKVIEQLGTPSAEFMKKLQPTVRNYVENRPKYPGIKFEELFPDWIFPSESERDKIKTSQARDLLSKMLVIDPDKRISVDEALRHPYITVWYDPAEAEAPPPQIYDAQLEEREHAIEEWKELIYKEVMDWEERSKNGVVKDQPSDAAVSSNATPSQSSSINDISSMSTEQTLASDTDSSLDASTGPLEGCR

For the compound `CN(C)CC(=O)Nc1cccc(-c2n[nH]c3ccc(C(N)=O)cc23)c1`, the concentration for half-maximal inhibition (IC50) was 1 to 10 µM.
As to `O=C(N[C@H]1c2ccccc2C[C@H]1O)c1cccc(-c2n[nH]c3ccc(-c4ncn[nH]4)cc23)c1`, the IC50 lay within 1 to 10 µM.
On to `NC(=O)c1ccc2[nH]nc(-c3cccc(NC(=O)c4cccc(O)c4)c3)c2c1`, for which the 50% inhibitory concentration (IC50) lay in the range of 1 to 10 µM.
In the case of `NC(=O)c1ccc2[nH]nc(-c3cccc(NC(=O)CCc4ccccc4)c3)c2c1`, the concentration for half-maximal inhibition (IC50) lay within 1 to 10 µM.
`O=C(N[C@@H]1c2ccccc2C[C@@H]1O)c1cccc(-c2n[nH]c3ccc(-c4ncn[nH]4)cc23)c1`: the IC50 is 1 to 10 µM.
As to `CC(=O)N1CCN(Cc2nnc(-c3ccc4[nH]nc(-c5ccc(F)cc5)c4c3)[nH]2)CC1`, the half-maximal inhibitory concentration (IC50) is 1 to 10 µM.
Take `NCCOc1cccc(-c2n[nH]c3ccc(-c4ncn[nH]4)cc23)c1`: the IC50 is at most 10 µM.
With `O=C(NC1Cc2ccccc2C1)c1cccc(-c2n[nH]c3ccc(-c4ncn[nH]4)cc23)c1` the figure was 0.5 to 10 µM; with `O=C(Nc1cccc(-c2n[nH]c3ccc(-c4nc[nH]n4)cc23)c1)c1cc2ccccc2s1`, 1 to 10 µM.
In the case of `O=C(Nc1ccc(-c2n[nH]c3ccc(-c4nc[nH]n4)cc23)cc1)c1cccnc1`, the 50% inhibitory concentration (IC50) lay in the range of 1 to 10 µM.
`CC(Oc1ccccc1)C(=O)Nc1cccc(-c2n[nH]c3ccc(-c4nn[nH]n4)cc23)c1` (centres undefined): the IC50 was in the range of 0.5 to 10 µM.
As to `CC(C)C(=O)Nc1cccc(-c2n[nH]c3ccc(-c4nc[nH]n4)cc23)c1`, the IC50 fell in the range of 0.5 to 10 µM.
Consider `O=C(c1ccc2[nH]nc(-c3ccc(F)cc3)c2c1)N1CCNCC1`, for which the concentration for half-maximal inhibition (IC50) was at most 10 µM.
Turning to `COc1ccc(-c2n[nH]c3ccc([N+](=O)[O-])cc23)cc1`, the half-inhibitory concentration (IC50) is at most 10 µM.
For `COCC(=O)Nc1cccc(-c2n[nH]c3ccc(-c4nn[nH]n4)cc23)c1` the value was 0.5 to 10 µM; for `Fc1ccc(-c2n[nH]c3ccc(-c4n[nH]c(CN5CCCC5)n4)cc23)cc1`, 0.5 to 10 µM; for `CC(=O)c1ccc2[nH]nc(-c3ccc(F)cc3)c2c1`, 1 to 10 µM.
`c1cc2[nH]nc(-c3ccc4c(c3)OCO4)c2cc1-c1nnn[nH]1`: the half-maximal inhibitory concentration (IC50) lay within 0.5 to 10 µM.
With `O=C(Cc1ccc(F)cc1)Nc1cccc(-c2n[nH]c3ccc(-c4nc[nH]n4)cc23)c1` the figure was 0.5 to 10 µM; with `CN(C)CCNC(=O)c1cccc(-c2n[nH]c3ccc(-c4ncn[nH]4)cc23)c1`, 0.5 to 10 µM; with `Nc1ccc(C(=O)Nc2ccc3[nH]nc(-c4ccccc4)c3c2)cc1`, 1 to 10 µM.
With `c1n[nH]c(-c2ccc3[nH]nc(-c4ccoc4)c3c2)n1` the figure was 1 to 10 µM.
Turning to `c1csc(-c2n[nH]c3ccc(-c4nnn[nH]4)cc23)c1`, the 50% inhibitory concentration (IC50) was in the range of 0.5 to 10 µM.
For the compound `COc1ccc(-c2n[nH]c3ccc(N)cc23)cc1`, the 50% inhibitory concentration (IC50) is at most 10 µM.
For `O=C(Nc1cccc(-c2n[nH]c3ccc(-c4nc[nH]n4)cc23)c1)C(O)c1ccccc1` (centres undefined), the IC50 lay in the range of 0.5 to 10 µM.
Regarding `O=C(O)CCc1ccc2[nH]nc(-c3ccc(F)cc3)c2c1`, the IC50 is at most 10 µM.
With `O=C(Nc1cccc(-c2n[nH]c3ccc(-c4nc[nH]n4)cc23)c1)[C@@H](O)c1ccccc1` the figure was 0.5 to 10 µM; with `CN1CCN(CC(=O)Nc2cccc(-c3n[nH]c4ccc(-c5nc[nH]n5)cc34)c2)CC1`, 1 to 10 µM; with `O=C(NC1CCC1)c1cccc(-c2n[nH]c3ccc(-c4nc[nH]n4)cc23)c1`, 0.5 to 10 µM.
With `Clc1ccc(-c2n[nH]c3ccc(-c4nc[nH]n4)cc23)cc1Cl` the figure was 1 to 10 µM; with `Fc1ccc(-c2n[nH]c3ccc(-c4n[nH]c(CN5CCOCC5)n4)cc23)cc1`, 1 to 10 µM.
On to `Clc1ccc(-c2n[nH]c3ccc(-c4nnn[nH]4)cc23)cc1`, for which the IC50 is 0.5 to 10 µM.
As for `O=C(O)c1ccc(C(=O)Nc2ccc3[nH]nc(-c4ccc(F)cc4)c3c2)cc1`, the half-inhibitory concentration (IC50) was in the range of 1 to 10 µM.
On to `O=C(Nc1ccncc1)c1cccc(-c2n[nH]c3ccc(-c4nc[nH]n4)cc23)c1`, for which the IC50 lay within 0.5 to 10 µM.
Regarding `COc1ccc2cc(-c3n[nH]c4ccc(-c5n[nH]c(CN6CCCC6)n5)cc34)ccc2c1`, the 50% inhibitory concentration (IC50) was 0.5 to 10 µM.
For `NC(=O)c1ccc2[nH]nc(-c3cccc(NC(=O)Cc4ccc(C(F)(F)F)cc4)c3)c2c1` the value was 1 to 10 µM.
In the case of `c1nc(-c2ccc3[nH]nc(-c4ccc5c(c4)CCO5)c3c2)n[nH]1`, the IC50 fell in the range of 1 to 10 µM.
For `O=[N+]([O-])c1ccc2[nH]nc(-c3ccoc3)c2c1` the value was at most 10 µM; for `CN(C)Cc1n[nH]c(-c2ccc3[nH]nc(-c4cc5ccccc5o4)c3c2)n1`, 1 to 10 µM; for `c1cc(-c2n[nH]c3ccc(-c4nnn[nH]4)cc23)cs1`, 0.5 to 10 µM.
With `CC(=O)Nc1cccc(-c2n[nH]c3ccc(-c4ncn[nH]4)cc23)c1` the figure was 1 to 10 µM; with `O=C(Nc1cccc(-c2n[nH]c3ccc(-c4nc[nH]n4)cc23)c1)c1ccc(Cl)nc1`, 1 to 10 µM.
Consider `O=C(Nc1cccc(-c2n[nH]c3ccc(-c4nc[nH]n4)cc23)c1)[C@H](O)c1ccccc1`, for which the 50% inhibitory concentration (IC50) lay in the range of 0.5 to 10 µM.
In the case of `COc1ccc2cc(-c3n[nH]c4ccc(-c5n[nH]c(CN(C)C)n5)cc34)ccc2c1`, the 50% inhibitory concentration (IC50) lay in the range of 1 to 10 µM.
Turning to `Cc1ncc(CC(=O)Nc2cccc(-c3n[nH]c4ccc(C(N)=O)cc34)c2)s1`, the IC50 was 1 to 10 µM.
With `O=C(O)c1ccc(C(=O)Nc2ccc3[nH]nc(-c4ccncc4)c3c2)cc1` the figure was 1 to 10 µM.
Take `O=[N+]([O-])c1ccc2[nH]nc(-c3cccc4ccccc34)c2c1`: the IC50 was at most 10 µM.
`Fc1ccc(-c2n[nH]c3ccc(-c4nnc[nH]4)cc23)cc1`: the half-maximal inhibitory concentration (IC50) fell in the range of 0.5 to 10 µM.
For `Fc1ccc(-c2n[nH]c3ccc(-c4n[nH]c(C5CCCN5)n4)cc23)cc1` (centres undefined) the value was 0.5 to 10 µM; for `O=C(O)C1CCN(C(=O)c2ccc3[nH]nc(-c4ccc(F)cc4)c3c2)CC1`, at most 10 µM; for `FC(F)(F)c1ccc(-c2n[nH]c3ccc(-c4ncn[nH]4)cc23)cc1`, 1 to 10 µM.
In the case of `O=C(Nc1cccnc1)c1cccc(-c2n[nH]c3ccc(-c4nc[nH]n4)cc23)c1`, the IC50 was 0.5 to 10 µM.
For `Fc1ccc(-c2n[nH]c3ccc(-c4nnc(Cc5ccccc5)[nH]4)cc23)cc1`, the IC50 is 1 to 10 µM.
As for `O=C(Nc1cccc2c1CCCC2)c1cccc(-c2n[nH]c3ccc(-c4nc[nH]n4)cc23)c1`, the concentration for half-maximal inhibition (IC50) fell in the range of 0.5 to 10 µM.
In the case of `O=C(O)c1ccc2[nH]nc(-c3ccc(F)cc3)c2c1`, the IC50 lay in the range of 1 to 10 µM.
Take `O=C(Nc1ccc2[nH]nc(-c3ccccc3)c2c1)c1ccccc1O`: the 50% inhibitory concentration (IC50) lay within 1 to 10 µM.
In the case of `c1ccc(CCc2n[nH]c3ccc(-c4nnn[nH]4)cc23)cc1`, the half-inhibitory concentration (IC50) was in the range of 1 to 10 µM.
With `C[S+]([O-])c1ccc(-c2n[nH]c3ccc(-c4ncn[nH]4)cc23)cc1` (centres undefined) the figure was 1 to 10 µM.
With `O=C(NCCc1ccccc1)c1cccc(-c2n[nH]c3ccc(-c4nc[nH]n4)cc23)c1`, the IC50 lay in the range of 0.5 to 10 µM.
As to `CNC(=O)c1ccc2[nH]nc(-c3cc4ccccc4o3)c2c1`, the IC50 was 1 to 10 µM.
Regarding `Cc1ccc(/C=C/c2n[nH]c3ccc(-c4nnc[nH]4)cc23)cc1`, the half-maximal inhibitory concentration (IC50) was in the range of 1 to 10 µM.
As to `CC(O)Cc1nnc(-c2ccc3[nH]nc(-c4ccc(F)cc4)c3c2)[nH]1` (stereo in doubt; form 1), the IC50 was 0.5 to 10 µM.
With `CN(C)Cc1nnc(-c2ccc3[nH]nc(-c4ccc(F)cc4)c3c2)[nH]1`, the IC50 was 0.5 to 10 µM.
Take `O=[N+]([O-])c1ccc2[nH]nc(-c3ccc4ccccc4c3)c2c1`: the IC50 was at most 10 µM.
With `COC(=O)c1ccc(C(=O)Nc2ccc3[nH]nc(-c4ccc(F)cc4)c3c2)cc1` the figure was at most 10 µM; with `CC(C)CC(=O)Nc1cccc(-c2n[nH]c3ccc(-c4nc[nH]n4)cc23)c1`, 0.5 to 10 µM; with `CN(C)Cc1n[nH]c(-c2ccc3[nH]nc(-c4cccc(C(=O)Nc5ccc(F)cc5)c4)c3c2)n1`, 0.5 to 10 µM.
In the case of `c1cc2[nH]nc(-c3ccc4c(c3)OCCO4)c2cc1-c1n[nH]c(CN2CCCC2)n1`, the IC50 is 1 to 10 µM.
For `O=C(Nc1cccc(-c2n[nH]c3ccc(-c4nc[nH]n4)cc23)c1)c1ccoc1` the value was 0.5 to 10 µM; for `O=C(Nc1cccc(-c2n[nH]c3ccc(-c4nn[nH]n4)cc23)c1)c1ccco1`, 0.5 to 10 µM; for `Fc1ccc(-c2n[nH]c3ccc(CCc4ccccn4)cc23)cc1`, at most 10 µM.
For `C[C@H](NC(=O)c1cccc(-c2n[nH]c3ccc(-c4ncn[nH]4)cc23)c1)c1ccccc1`, the IC50 lay within 1 to 10 µM.
For `CN(C)Cc1nc(-c2ccc3[nH]nc(-c4ccc5c(c4)OCO5)c3c2)n[nH]1`, the IC50 was 0.5 to 10 µM.
As for `Fc1ccc(-c2n[nH]c3ccc(-c4ncc[nH]4)cc23)cc1`, the half-maximal inhibitory concentration (IC50) lay in the range of 1 to 10 µM.
With `O=C(NC1CCN(Cc2ccccc2)CC1)c1cccc(-c2n[nH]c3ccc(-c4nc[nH]n4)cc23)c1` the figure was 0.5 to 10 µM.
On to `NC(=O)c1ccc2[nH]nc(-c3cccc(NC(=O)Cc4ccccc4)c3)c2c1`, for which the concentration for half-maximal inhibition (IC50) fell in the range of 0.5 to 10 µM.
Take `CC(C)CC(=O)Nc1cccc(-c2n[nH]c3ccc(-c4n[nH]c(CN(C)C)n4)cc23)c1`: the IC50 fell in the range of 0.5 to 10 µM.
Consider `CN(C)Cc1nc(-c2ccc3[nH]nc(-c4cccc(C(=O)NCc5ccc(F)cc5)c4)c3c2)n[nH]1`, for which the half-inhibitory concentration (IC50) is 0.5 to 10 µM.
As to `NC(=O)c1ccc2[nH]nc(-c3cc4ccccc4s3)c2c1`, the IC50 lay within 1 to 10 µM.
In the case of `O=S(=O)(Nc1ccc2[nH]nc(-c3ccc(F)cc3)c2c1)c1ccccc1`, the IC50 is at most 10 µM.
For `CC(=O)N1CCN(CCOc2cccc(-c3n[nH]c4ccc(-c5ncn[nH]5)cc34)c2)CC1`, the IC50 lay within 1 to 10 µM.
On to `NC(=O)c1ccc2[nH]nc(-c3cccc(NC(=O)c4cccs4)c3)c2c1`, for which the IC50 fell in the range of 1 to 10 µM.
With `c1ccc2cc(-c3n[nH]c4ccc(-c5nnn[nH]5)cc34)ccc2c1`, the 50% inhibitory concentration (IC50) lay in the range of 0.5 to 10 µM.
For `c1cc(-c2n[nH]c3ccc(-c4nnn[nH]4)cc23)ccc1OCCN1CCOCC1` the value was 0.5 to 10 µM.
For `Oc1ccc(-c2nnc(-c3ccc4[nH]nc(-c5ccc(F)cc5)c4c3)[nH]2)cc1` the value was 1 to 10 µM.
As for `Fc1ccc(-c2n[nH]c3ccc(/C=C/c4ccccn4)cc23)cc1`, the IC50 is at most 10 µM.
With `CC(C)CNC(=O)c1ccc2[nH]nc(-c3cc4ccccc4o3)c2c1`, the half-inhibitory concentration (IC50) was in the range of 1 to 10 µM.
For `NC(=O)c1ccc2[nH]nc(-c3cccc(OCCN4CCCCC4)c3)c2c1` the value was 1 to 10 µM; for `COc1ccc(/C=C/c2n[nH]c3ccc(-c4nc[nH]n4)cc23)cc1`, 1 to 10 µM.
